Key:
[1] = biological target: JAK2 (recombinant purified GST-tagged catalytic domain) (Homo sapiens (Human), UniProt O60674); experiment: Jak Biochemical HTRF Assay (JAK2); conditions: [ATP] 8.5 μM
[2] = biological target: JAK1 (recombinant purified GST-tagged catalytic domain) (Homo sapiens (Human), UniProt P23458); experiment: Jak Biochemical HTRF Assay (JAK1); conditions: [ATP] 31.8 μM
Outline: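 HTRF kinase format: compounds pre-equilibrated with recombinant GST-tagged JAK1 or JAK2 catalytic domain, then ATP started a 120 min room-temperature reaction on a common peptide substrate. Phosphopeptide detected via Eu-pY20/streptavidin-Dylight 650 after EDTA quench; percent inhibition versus log concentration fitted (4-parameter) to give IC50.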

Sequence of JAK1 (recombinant purified GST-tagged catalytic domain) (P23458 875-1153): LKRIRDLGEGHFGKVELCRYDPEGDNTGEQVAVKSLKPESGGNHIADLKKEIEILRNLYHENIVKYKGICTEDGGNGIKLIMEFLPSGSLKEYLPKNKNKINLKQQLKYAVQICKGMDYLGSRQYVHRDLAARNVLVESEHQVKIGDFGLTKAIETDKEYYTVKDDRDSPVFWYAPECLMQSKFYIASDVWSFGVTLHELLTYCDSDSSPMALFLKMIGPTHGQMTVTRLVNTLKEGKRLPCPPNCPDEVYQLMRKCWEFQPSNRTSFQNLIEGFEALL
Sequence of JAK2 (recombinant purified GST-tagged catalytic domain) (O60674 849-1124): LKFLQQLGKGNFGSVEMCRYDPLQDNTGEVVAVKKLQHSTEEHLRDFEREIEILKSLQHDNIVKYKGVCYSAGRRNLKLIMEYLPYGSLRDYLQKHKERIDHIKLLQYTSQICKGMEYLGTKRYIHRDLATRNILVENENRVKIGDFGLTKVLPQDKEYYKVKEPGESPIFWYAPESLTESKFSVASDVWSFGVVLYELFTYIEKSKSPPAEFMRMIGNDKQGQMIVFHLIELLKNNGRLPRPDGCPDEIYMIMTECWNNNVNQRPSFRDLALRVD

Compound | IC50 [1] | IC50 [2]
CC(C)(C)N1Cc2cc(Nc3nn([C@@]4(CC#N)CCOC[C@H]4F)c4cc[nH]c(=O)c34)ccc2S1(=O)=O (single isomer, unassigned) [Example 5-255, 2-((3S,4S or 3R,4R)-4-(3-((2-(tert-butyl)-1,1-dioxido-2,3-dihydrobenzo[d]isothiazol-5-yl)amino)-4-oxo-4,5-dihydro-1H-pyrazolo[4,3-c]pyridin-1-yl)-3-fluorotetrahydro-2H-pyran-4-yl)acetonitrile] | 3.32 nM | 0.14 nM
CC(C)(C)N1Cc2cc(Nc3nn([C@]4(CC#N)CCOC[C@@H]4F)c4cc[nH]c(=O)c34)ccc2S1(=O)=O (single isomer, unassigned) [Example 5-256, 2-((3R,4R or 3S,4S)-4-(3-((2-(tert-butyl)-1,1-dioxido-2,3-dihydrobenzo[d]isothiazol-5-yl)amino)-4-oxo-4,5-dihydro-1H-pyrazolo[4,3-c]pyridin-1-yl)-3-fluorotetrahydro-2H-pyran-4-yl)acetonitrile] | 0.06 nM | 0.04 nM
Cc1cc(Nc2nn([C@@]3(CC#N)CCOC[C@H]3F)c3cc[nH]c(=O)c23)ccc1C(=O)N1CCOCC1 (single isomer, unassigned) [Example 5-257, 2-((3S,4S or 3R,4R)-3-fluoro-4-(3-(3-methyl-4-(morpholine-4-carbonyl)phenylamino)-4-oxo-4,5-dihydropyrazolo[4,3-c]pyridin-1-yl)-tetrahydro-2H-pyran-4-yl)acetonitrile] | 3.17 nM | 2.08 nM
Cc1cc(Nc2nn([C@]3(CC#N)CCOC[C@@H]3F)c3cc[nH]c(=O)c23)ccc1C(=O)N1CCOCC1 (single isomer, unassigned) [Example 5-258, 2-((3R,4R or 3S,4S)-3-fluoro-4-(3-((3-methyl-4-(morpholine-4-carbonyl)phenyl)amino)-4-oxo-4,5-dihydro-1H-pyrazolo[4,3-c]pyridin-1-yl)tetrahydro-2H-pyran-4-yl)acetonitrile] | 0.08 nM | 0.07 nM
Cc1cc(Nc2nn([C@@]3(CC#N)CCOC[C@H]3F)c3cc[nH]c(=O)c23)ccc1C(=O)N1CCSCC1 (single isomer, unassigned) [Example 5-261, 2-((3S,4S or 3R,4R)-3-fluoro-4-(3-(3-methyl-4-(thiomorpholine-4-carbonyl)phenylamino)-4-oxo-4,5-dihydropyrazolo[4,3-c]pyridin-1-yl)-tetrahydro-2H-pyran-4-yl)acetonitrile] | 2.74 nM | 2.26 nM
Cc1cc(Nc2nn([C@]3(CC#N)CCOC[C@@H]3F)c3cc[nH]c(=O)c23)ccc1C(=O)N1CCSCC1 (single isomer, unassigned) [Example 5-262, 2-((3R,4R or 3S,4S)-3-fluoro-4-(3-((3-methyl-4-(thiomorpholine-4-carbonyl)phenyl)amino)-4-oxo-4,5-dihydro-1H-pyrazolo[4,3-c]pyridin-1-yl)tetrahydro-2H-pyran-4-yl)acetonitrile] | 0.08 nM | 0.09 nM
N#CC[C@]1(n2nc(Nc3ccc([C@]4(C(F)(F)F)CCCCN4)cc3)c3c(=O)[nH]ccc32)CCOC[C@H]1F (single isomer, unassigned) [Example 5-263, 2-((3S,4S or 3R,4R)-3-fluoro-4-(4-oxo-3-((4-((S or R)-2-(trifluoromethyl)piperidin-2-yl)phenyl)amino)-4,5-dihydro-1H-pyrazolo[4,3-c]pyridin-1-yl)tetrahydro-2H-pyran-4-yl)acetonitrile] | 0.77 nM | 0.48 nM
N#CC[C@]1(n2nc(Nc3ccc([C@@]4(C(F)(F)F)CCCCN4)cc3)c3c(=O)[nH]ccc32)CCOC[C@H]1F (single isomer, unassigned) [Example 5-264, 2-((3S,4S or 3R,4R)-3-fluoro-4-(4-oxo-3-((4-((R or S)-2-(trifluoromethyl)piperidin-2-yl)phenyl)amino)-4,5-dihydro-1H-pyrazolo[4,3-c]pyridin-1-yl)tetrahydro-2H-pyran-4-yl)acetonitrile] | 0.79 nM | 0.51 nM
N#CC[C@@]1(n2nc(Nc3ccc([C@]4(C(F)(F)F)CCCCN4)cc3)c3c(=O)[nH]ccc32)CCOC[C@@H]1F (single isomer, unassigned) [Example 5-265, 2-((3R,4R or 3S,4S)-3-fluoro-4-(4-oxo-3-((4-((S or R)-2-(trifluoromethyl)piperidin-2-yl)phenyl)amino)-4,5-dihydro-1H-pyrazolo[4,3-c]pyridin-1-yl)tetrahydro-2H-pyran-4-yl)acetonitrile] | 0.04 nM | 0.05 nM
N#CC[C@@]1(n2nc(Nc3ccc([C@@]4(C(F)(F)F)CCCCN4)cc3)c3c(=O)[nH]ccc32)CCOC[C@@H]1F (single isomer, unassigned) [Example 5-266, 2-((3R,4R or 3S,4S)-3-fluoro-4-(4-oxo-3-((4-((R or S)-2-(trifluoromethyl)piperidin-2-yl)phenyl)amino)-4,5-dihydro-1H-pyrazolo[4,3-c]pyridin-1-yl)tetrahydro-2H-pyran-4-yl)acetonitrile] | 0.04 nM | 0.05 nM
CC(C)(C)N[C@H](c1ccc(Nc2nn([C@@]3(CC#N)CCOC[C@H]3F)c3cc[nH]c(=O)c23)cc1)C(F)(F)F (single isomer, unassigned) [Example 5-267, 2-((3S,4S or 3R,4R)-4-(3-((4-((R or S)-1-(tert-butylamino)-2,2,2-trifluoroethyl)phenyl)amino)-4-oxo-4,5-dihydro-1H-pyrazolo[4,3-c]pyridin-1-yl)-3-fluorotetrahydro-2H-pyran-4-yl)acetonitrile] | 4.02 nM | 2.42 nM
CC(C)(C)N[C@@H](c1ccc(Nc2nn([C@@]3(CC#N)CCOC[C@H]3F)c3cc[nH]c(=O)c23)cc1)C(F)(F)F (single isomer, unassigned) [Example 5-268, 2-((3S,4S or 3R,4R)-4-(3-((4-((S or R)-1-(tert-butylamino)-2,2,2-trifluoroethyl)phenyl)amino)-4-oxo-4,5-dihydro-1H-pyrazolo[4,3-c]pyridin-1-yl)-3-fluorotetrahydro-2H-pyran-4-yl)acetonitrile] | 4.78 nM | 2.63 nM
CC(C)(C)N[C@H](c1ccc(Nc2nn([C@]3(CC#N)CCOC[C@@H]3F)c3cc[nH]c(=O)c23)cc1)C(F)(F)F (single isomer, unassigned) [Example 5-269, 2-((3R,4R or 3S,4S)-4-(3-((4-((R or S)-1-(tert-butylamino)-2,2,2-trifluoroethyl)phenyl)amino)-4-oxo-4,5-dihydro-1H-pyrazolo[4,3-c]pyridin-1-yl)-3-fluorotetrahydro-2H-pyran-4-yl)acetonitrile] | 0.09 nM | 0.11 nM
CC(C)(C)N[C@@H](c1ccc(Nc2nn([C@]3(CC#N)CCOC[C@@H]3F)c3cc[nH]c(=O)c23)cc1)C(F)(F)F (single isomer, unassigned) [Example 5-270, 2-((3R,4R or 3S,4S)-4-(3-((4-((S or R)-1-(tert-butylamino)-2,2,2-trifluoroethyl)phenyl)amino)-4-oxo-4,5-dihydro-1H-pyrazolo[4,3-c]pyridin-1-yl)-3-fluorotetrahydro-2H-pyran-4-yl)acetonitrile] | 0.13 nM | 0.12 nM
